Assays:
Format in all cases: functional
[1] = test system: Oryctolagus cuniculus; assay: Cardiovascular activity in Albino rabbit assessed as change in heart rate tested at basal heart rate of 180 beats/min at 1.0 mg/kg, iv by physiograph 4
[2] = test system: Oryctolagus cuniculus; assay: Cardiovascular activity in Albino rabbit assessed as change in heart rate tested at basal heart rate of 180 beats/min at 0.50 mg/kg, iv by physiograph 4; conditions: dose 0.5 mg/kg
[3] = test system: Oryctolagus cuniculus; assay: Cardiovascular activity in Albino rabbit assessed as change in heart rate tested at basal heart rate of 180 beats/min at 0.25 mg/kg, iv by physiograph 4
[4] = test system: Oryctolagus cuniculus; assay: Cardiovascular activity in Albino rabbit assessed as change in heart rate tested at basal heart rate of 178 beats/min at 0.50 mg/kg, iv by physiograph 4; conditions: dose 0.5 mg/kg
[5] = test system: Oryctolagus cuniculus; assay: Cardiovascular activity in Albino rabbit assessed as change in heart rate tested at basal heart rate of 180 beats/min at 0.10 mg/kg, iv by physiograph 4; conditions: dose 0.1 mg/kg
[6] = test system: Oryctolagus cuniculus; assay: Cardiovascular activity in Albino rabbit assessed as change in heart rate tested at basal heart rate of 178 beats/min at 1.0 mg/kg, iv by physiograph 4
[7] = test system: Oryctolagus cuniculus; assay: Cardiovascular activity in Albino rabbit assessed as sinusoidal heart rate tested at basal heart rate of 180 beats/min at 0.05 mg/kg, iv by physiograph 4
[8] = test system: Oryctolagus cuniculus; assay: Cardiovascular activity in Albino rabbit assessed as change in heart rate tested at basal heart rate of 185 beats/min at 1.0 mg/kg, iv by physiograph 4
[9] = test system: Oryctolagus cuniculus; assay: Cardiovascular activity in Albino rabbit assessed as change in heart rate tested at basal heart rate of 185 beats/min at 0.25 mg/kg, iv by physiograph 4
[10] = test system: Oryctolagus cuniculus; assay: Cardiovascular activity in Albino rabbit assessed as change in heart rate tested at basal heart rate of 185 beats/min at 0.50 mg/kg, iv by physiograph 4; conditions: dose 0.5 mg/kg
[11] = test system: Oryctolagus cuniculus; assay: Cardiovascular activity in Albino rabbit assessed as change in heart rate tested at basal heart rate of 185 beats/min at 0.10 mg/kg, iv by physiograph 4; conditions: dose 0.1 mg/kg
[12] = test system: Oryctolagus cuniculus; assay: Cardiovascular activity in Albino rabbit assessed as change in heart rate tested at basal heart rate of 185 beats/min at 5.0 mg/kg, iv by physiograph 4
[13] = test system: Oryctolagus cuniculus; assay: Cardiovascular activity in Albino rabbit assessed as change in heart rate tested at basal heart rate of 195 beats/min at 0.10 mg/kg, iv by physiograph 4; conditions: dose 0.1 mg/kg
[14] = test system: Oryctolagus cuniculus; assay: Cardiovascular activity in Albino rabbit assessed as change in heart rate tested at basal heart rate of 195 beats/min at 1.0 mg/kg, iv by physiograph 4
[15] = test system: Oryctolagus cuniculus; assay: Cardiovascular activity in Albino rabbit assessed as change in heart rate tested at basal heart rate of 195 beats/min at 0.50 mg/kg, iv by physiograph 4; conditions: dose 0.5 mg/kg
[16] = test system: Oryctolagus cuniculus; assay: Cardiovascular activity in Albino rabbit assessed as change in heart rate tested at basal heart rate of 195 beats/min at 0.25 mg/kg, iv by physiograph 4
[17] = test system: Oryctolagus cuniculus; assay: Cardiovascular activity in Albino rabbit assessed as sinusoidal heart rate tested at basal heart rate of 200 beats/min at 0.05 mg/kg, iv by physiograph 4
[18] = test system: Oryctolagus cuniculus; assay: Cardiovascular activity in Albino rabbit assessed as change in heart rate tested at basal heart rate of 200 beats/min at 0.25 mg/kg, iv by physiograph 4
[19] = test system: Oryctolagus cuniculus; assay: Cardiovascular activity in Albino rabbit assessed as sinusoidal heart rate tested at basal heart rate of 185 beats/min at 0.05 mg/kg, iv by physiograph 4
[20] = test system: Oryctolagus cuniculus; assay: Cardiovascular activity in Albino rabbit assessed as change in heart rate tested at basal heart rate of 200 beats/min at 0.10 mg/kg, iv by physiograph 4; conditions: dose 0.1 mg/kg
[21] = test system: Oryctolagus cuniculus; assay: Cardiovascular activity in Albino rabbit assessed as change in heart rate tested at basal heart rate of 200 beats/min at 0.50 mg/kg, iv by physiograph 4; conditions: dose 0.5 mg/kg
[22] = test system: Oryctolagus cuniculus; assay: Cardiovascular activity in Albino rabbit assessed as change in heart rate tested at basal heart rate of 200 beats/min at 1.0 mg/kg, iv by physiograph 4

| Compound | Activity [2] | Activity [3] | Activity [5] | Activity [8] | Activity [9] | Activity [10] | Activity [11] | Activity [12] | Activity [18] | Activity [20] | Activity [21] | other results |
| --- | --- | --- | --- | --- | --- | --- | --- | --- | --- | --- | --- | --- |
| CCN1C[C@]2(COC(=O)c3ccccc3NC(=O)CCC(=O)OC)CC[C@H](OC)[C@@]34[C@@H]5C[C@H]6[C@H](OC)[C@@H]5[C@](O)(C[C@@H]6OC)[C@](O)([C@@H](OC)[C@H]23)[C@@H]14 [CASHMIRADELPHINE] | -5 bpm | -5 bpm | 5 bpm |  |  |  |  |  |  |  |  | Activity [1]: -20 bpm; Activity [4]: -8 bpm; Activity [6]: -10 bpm; Activity [7]: -5 bpm |
| CCN1C[C@]2(O)CC[C@H](OC)[C@@]34[C@@H]2C[C@H]([C@@H]13)[C@@]1(O)C[C@H](OC)[C@H]2C[C@@H]4[C@]1(O)[C@H]2OC [LAPPACONINE] |  |  |  | 0 bpm | 0 bpm | 0 bpm | -5 bpm | 0 bpm |  |  |  |  |
| CCN1C[C@]2(COC(=O)c3ccccc3N3C(=O)CCC3=O)CC[C@H](OC)[C@]34C1[C@](O)([C@@H](OC)[C@H]23)[C@@]1(O)C[C@H](OC)[C@H]2C[C@@H]4[C@@H]1[C@H]2OC [LYCACONITINE] | -10 bpm | 0 bpm | -10 bpm |  |  |  |  |  |  |  |  | Activity [13]: 3 bpm; Activity [14]: -5 bpm; Activity [15]: 0 bpm; Activity [16]: 5 bpm |
| CCN1C[C@]2(C=O)CC[C@H](OC)[C@@]34[C@@H]5C[C@@H]6[C@@H](OC)C[C@@](O)(C5[C@H]6OC)[C@](O)([C@@H](OC)[C@H]23)[C@@H]14 [LYCOCTONAL] |  |  |  | 0 bpm | 0 bpm | 0 bpm | -5 bpm | -10 bpm | 0 bpm | 0 bpm | 0 bpm | Activity [17]: -3 bpm; Activity [19]: 0 bpm |
| CCN1C[C@]2(CO)CC[C@H](OC)[C@@]34[C@@H]5C[C@H]6[C@H](OC)[C@@H]5[C@](O)(C[C@@H]6OC)[C@](O)([C@@H](OC)[C@H]23)[C@@H]14 [LYCOCTONINE] |  |  |  |  |  | 0 bpm | -25 bpm |  | 5 bpm | 5 bpm | 0 bpm | Activity [22]: 0 bpm |

Reference: ChEMBL document CHEMBL1158659, “The alkaloids of Delphinium cashmirianum” (J Nat Prod, 1979)
